Publication PMC9959716, “Borate Transporters and SLC4 Bicarbonate Transporters Share Key Functional Properties” (Membranes, 2023)

T1: ScBor1p (Saccharomyces cerevisiae, UniProt P53838)
T1 construct: gene BOR1; full length, C-terminal deca-histidine tag, pRS423-derived plasmid, GAL1 promoter, expressed in S. cerevisiae BTSY2 (bor1 deletion)
T1 sequence (P53838 1-576): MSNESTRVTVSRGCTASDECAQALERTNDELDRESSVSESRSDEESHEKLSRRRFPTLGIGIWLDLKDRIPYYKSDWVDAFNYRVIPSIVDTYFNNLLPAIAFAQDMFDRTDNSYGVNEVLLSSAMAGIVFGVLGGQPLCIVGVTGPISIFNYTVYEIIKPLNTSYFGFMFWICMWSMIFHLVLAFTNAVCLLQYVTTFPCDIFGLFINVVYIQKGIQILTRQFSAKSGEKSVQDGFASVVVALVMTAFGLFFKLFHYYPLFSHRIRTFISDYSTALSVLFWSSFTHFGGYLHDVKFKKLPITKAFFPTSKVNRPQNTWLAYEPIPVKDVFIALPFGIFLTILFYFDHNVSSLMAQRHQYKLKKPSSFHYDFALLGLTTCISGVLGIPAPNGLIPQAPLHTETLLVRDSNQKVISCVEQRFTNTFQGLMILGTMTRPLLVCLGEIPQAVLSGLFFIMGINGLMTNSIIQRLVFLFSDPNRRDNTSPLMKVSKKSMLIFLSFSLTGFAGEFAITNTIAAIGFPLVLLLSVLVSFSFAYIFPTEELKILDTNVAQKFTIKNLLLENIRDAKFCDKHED

B1: S. cerevisiae borate transporter Bor1p (natural protein, UniProt P53838 1-576, looked up)
chain: T1 sequence (P53838 1-576)
notes: Borate transporter Bor1p of S. cerevisiae, wild type; Membrane protein; Monomer-dimer equilibrium; dimer promoted by lipids; also called ScBor1p; source: reconstituted into PC or PG proteoliposomes

Columns and labels:
ScBor1p = molecular target: T1, ScBor1p; assay: curcumin spectrophotometric quantification of intracellular borate (efflux) in yeast lysates; assay type: cell-based; conditions: 1 mM boric acid for 90 min
[1] = molecular target: the molecule itself; assay: cross-linking; purified ScBor1p reconstituted into PC (16:0/18:1) proteoliposomes, 1:20 protein:lipid (w:w), detergent removed with Bio-beads; 0.15% glutaraldehyde, 5 min, room temperature; 20 mM Mes pH 6.5, 100 mM NaCl, 2% glycerol; control with 5 min pre-treatment with 2% SDS

Row | Molecule | curcumin spectrophotometric quantification of intracellular borate (efflux) in y (ScBor1p) | binding result [1]
1 | OB(O)O [borate] | Quantification of borate efflux activity in yeast cells expressing each indicated protein | –
2 | B1 | – | binds
